Assay results as given in patent US5766848A (Synaptic Pharmaceutical Corporation, priority 1994, dated 1998).

What was measured:
[1] = human volunteers (CI-966); clinical reports (Tiagabine); cited from earlier work
[2] = literature reports; cited from earlier work
human BGT-1 = biological target: T1, human BGT-1 (Homo sapiens, UniProt P48065); conditions: read-out: IC50, human BGT-1, inhibition of [3H]GABA uptake; Table 9; stable LM(tk-) cell line; means ± S.E.M.
T1 sequence (P48065 1-614 C10Y): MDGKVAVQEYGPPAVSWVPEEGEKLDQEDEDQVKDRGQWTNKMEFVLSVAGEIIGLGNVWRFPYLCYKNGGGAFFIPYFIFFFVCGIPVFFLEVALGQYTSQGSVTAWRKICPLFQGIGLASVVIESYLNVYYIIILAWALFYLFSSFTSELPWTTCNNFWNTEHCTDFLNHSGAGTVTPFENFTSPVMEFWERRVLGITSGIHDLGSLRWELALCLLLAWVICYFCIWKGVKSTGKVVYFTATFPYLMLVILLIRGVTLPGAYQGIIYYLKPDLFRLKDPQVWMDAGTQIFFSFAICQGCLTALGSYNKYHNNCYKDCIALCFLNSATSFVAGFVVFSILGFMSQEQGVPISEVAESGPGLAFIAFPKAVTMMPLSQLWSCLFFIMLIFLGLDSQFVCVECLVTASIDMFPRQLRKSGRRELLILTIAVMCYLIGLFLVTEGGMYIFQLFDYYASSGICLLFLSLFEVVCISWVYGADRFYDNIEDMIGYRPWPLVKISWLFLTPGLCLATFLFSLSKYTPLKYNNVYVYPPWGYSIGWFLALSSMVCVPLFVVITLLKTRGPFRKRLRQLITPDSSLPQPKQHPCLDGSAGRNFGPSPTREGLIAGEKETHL
Description: Cells were grown under standard conditions (37° C., 5% CO2) in Dulbecco's modified Eagles's medium (GIBCO, Grand Island, N.Y.).
After 10 minutes the medium was removed and unlabeled drugs in HBS were added (450 μl/well). […] Plates were incubated at 37° C. for 10 minutes, then washed rapidly 3× with ice-cold HBS, using a 24-position plate washer (Brandel, Gaithersburg, Mass.; model PW-12). Cells were solubilized with 0.05% sodium deoxycholate/0.1N NaOH (0.25 ml/well), an aliquot neutralized with 1N HCl, and radioactivity was determined by scintillation counting. Protein was quantified in an aliquot of the solubilized cells using a BIO-RAD protein assay kit, according to the manufacturer's directions.
Data Analysis: Competition curves were conducted in duplicate, using 10 concentrations of unlabeled drug. […] All data throughout the paper represent means±SEM.
(§1) Cells were grown under standard conditions (37° C., 5% CO2) in DMEM (Dulbecco's modified Eagles's medium; GIBCO, Grand Island, N.Y.).
(§2) Cells grown in 24-well plates were washed 3× with HEPES-buffered saline (HBS, in mM: NaCl, 150; HEPES, 20; CaCl2, 1; glucose, 10; KCl, 5; MgCl2 1; pH 7.4) and allowed to equilibrate on a 37° C. slide warmer. After 10 minutes the medium was removed and unlabeled drugs in HBS were added (450 μl/well). […] Plates were incubated at 37° C. for 10 minutes, then washed rapidly 3× with ice-cold HBS, using a 24-position plate washer (Brandel, Gaithersburg, Mass.; model PW-12). Cells were solubilized with 0.05% sodium deoxycholate/0.1N NaOH (0.25 ml/well), an aliquot neutralized with 1N HCl, and radioactivity was determined by scintillation counting. Protein was quantified in an aliquot of the solubilized cells using a BIO-RAD protein assay kit, according to the manufacturer's directions.
(§3) Competition curves were conducted in duplicate, using 10 concentrations of unlabeled drug. […] All data throughout the paper represent means±S.E.M.

human GAT-1 = human GAT-1 (Homo sapiens, UniProt P30531); conditions: read-out: IC50, human GAT-1, inhibition of [3H]GABA uptake
Description: as §1, §2, §3

human GAT-3 = biological target: T2, human GAT-3 (Homo sapiens, UniProt P48066); assay: Inhibition of [3H]GABA uptake, human GAT-3 stable LM(tk-) cell line; format: cell-based; conditions: read-out: IC50, human GAT-3, inhibition of [3H]GABA uptake, Table 9, means ± S.E.M.
T2 construct: expressed in transfected cells
T2 sequence (P48066 1-632): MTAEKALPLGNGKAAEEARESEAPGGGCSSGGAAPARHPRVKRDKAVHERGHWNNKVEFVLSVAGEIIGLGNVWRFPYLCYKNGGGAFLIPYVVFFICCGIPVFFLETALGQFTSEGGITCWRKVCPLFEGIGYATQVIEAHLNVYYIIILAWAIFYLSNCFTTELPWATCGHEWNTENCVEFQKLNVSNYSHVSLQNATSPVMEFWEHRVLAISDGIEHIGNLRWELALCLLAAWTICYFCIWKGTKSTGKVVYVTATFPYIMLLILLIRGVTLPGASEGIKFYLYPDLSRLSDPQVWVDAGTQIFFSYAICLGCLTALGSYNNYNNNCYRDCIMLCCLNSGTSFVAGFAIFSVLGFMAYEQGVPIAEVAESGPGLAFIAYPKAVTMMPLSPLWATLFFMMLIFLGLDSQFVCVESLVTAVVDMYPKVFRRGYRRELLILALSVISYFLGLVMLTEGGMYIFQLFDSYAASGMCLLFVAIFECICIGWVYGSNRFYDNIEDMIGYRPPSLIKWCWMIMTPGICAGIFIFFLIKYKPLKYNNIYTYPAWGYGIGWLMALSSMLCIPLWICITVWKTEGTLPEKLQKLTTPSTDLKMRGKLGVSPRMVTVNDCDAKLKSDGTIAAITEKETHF
Description: as §1, §2, §3

Chain of human GAT-1 (P30531 whole entry): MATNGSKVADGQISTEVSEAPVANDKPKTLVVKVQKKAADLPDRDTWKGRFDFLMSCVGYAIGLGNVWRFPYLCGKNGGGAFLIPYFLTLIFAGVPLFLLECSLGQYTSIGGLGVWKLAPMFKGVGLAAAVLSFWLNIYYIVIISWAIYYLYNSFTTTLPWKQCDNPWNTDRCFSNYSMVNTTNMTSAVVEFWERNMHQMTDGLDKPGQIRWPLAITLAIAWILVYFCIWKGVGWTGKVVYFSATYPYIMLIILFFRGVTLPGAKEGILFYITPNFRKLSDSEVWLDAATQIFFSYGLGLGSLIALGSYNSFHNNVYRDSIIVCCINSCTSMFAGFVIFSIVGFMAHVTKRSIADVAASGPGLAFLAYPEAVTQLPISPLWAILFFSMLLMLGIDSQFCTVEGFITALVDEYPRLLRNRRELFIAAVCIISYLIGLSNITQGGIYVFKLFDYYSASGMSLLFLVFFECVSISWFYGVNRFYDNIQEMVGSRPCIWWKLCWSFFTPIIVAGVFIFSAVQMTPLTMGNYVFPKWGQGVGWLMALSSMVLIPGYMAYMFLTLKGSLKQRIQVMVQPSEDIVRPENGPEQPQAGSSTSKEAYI

O=C(O)C1=CCCN(CCOC(c2ccc(C(F)(F)F)cc2)c2ccc(C(F)(F)F)cc2)C1 [CI-966, [1-[2-[bis4(trifluoromethyl)phenyl]methoxy]ethyl]-1,2,5,6-tetrahydro-3-pyridinecarboxylic acid]
severe adverse effects in humans [1]: Severe adverse effects were noted
anticonvulsive activity in animals [2]: display anticonvulsive activity
IC50 (human BGT-1): 300 ± 10 µM
IC50 (human GAT-1): 0.26 ± 0.05 µM
IC50 (human GAT-3): 333 ± 76 µM
